Reference: ChEMBL document CHEMBL1150121, “A new cytotoxic calyculinamide derivative, geometricin A, from the Australian sponge Luffariella geometrica” (2002)
Values after ≈ are worked out from the molar mass of the structure shown.

Columns and labels:
Type in all cases: functional
[1] = Growth inhibition of human HM02 cells
[2] = test system: HepG2; assay: Growth inhibition of human HepG2 cells
[3] = test system: [Chlorella] fusca; assay: Antialgal activity against Chlorella fusca at 50 ug/disk by agar diffusion test; conditions: Scenedesmus fuscus; read-out: IZ
[4] = test system: Microbotryum violaceum; assay: Antifungal activity against Microbotryum violaceum at 50 ug/disk by agar diffusion test; conditions: read-out: IZ

COC(CC(O)C(C)C(O)C(C)/C=C(C)/C(C)=C/CC/C(C)=C\C(N)=O)[C@H]1O[C@]2(C[C@H](O)[C@H](C)[C@H](C/C=C/c3coc(C)n3)O2)C(C)(C)[C@H]1OP(=O)(O)O (stereo partly specified) [GEOMETRICIN A]
GI50 [1]: 1.7 µg/mL (≈ 2.17 µM) | TGI [1]: 3.2 µg/mL (≈ 4.09 µM) | GI50 [2]: 2.8 µg/mL (≈ 3.58 µM) | TGI [2]: 8.8 µg/mL (≈ 11.2 µM) | zone of inhibition at 50 µg/disc [3]: 5 mm | zone of inhibition at 50 µg/disc [4]: 5 mm
